The source of these data is patent US4442108A, “Hydrogenated isoquinolines and peripheral vascular disease treating compositions thereof” (Laboratoires Sobio S.A. of Immeuble Perisud, priority 1981, dated 1984).

Counter-ions that a name gives are not always drawn. Like-named read-outs stand apart in the source and are kept apart here.

Series [1] can be described thus: Acute toxicity, LD50 in mice (method of Litchfield and Wilcoxon), intravenous route. The following applies: in vivo. How it is done:
LD50 values in mice for several compounds of the invention were obtained by the method of Litchfield and Wilcoxon (J. Pharmacol. (1949), 96.99) after the administration of the test compound by intravenous route (i.v.) in the mouse (CD, males 18-24 g) in a volume of 0.40 ml/20 g of body weight. The mortality is noted 7 days after administration.

Series [2] deals with dogs anaesthetized with chloralose. The series is described as follows: Cardiovascular activity in anaesthetized dogs. The note with it: i.v., 1/15 to 1/30 of the mouse i.v. LD50. Format: in vivo, dog. How it is done:
The following parameters were recorded in dogs anaesthetized with chloralose, and under artificial respiration:
left ventricular contractile force.
The compounds tested were injected intravenously in a dose of from (1/15) to (1/30) of the LD50 (i.v.) previoulsy determined in mice.

In series [3] the test system is isolated ileum of the guinea pig. The series is described as follows: Spasmolytic activity in vitro, barium chloride contraction of isolated ileum. The following applies: Cavia porcellus, Tyrode liquid, 37° C., barium chloride as contracting agent, product added 30 seconds before, read-out: EC50 (concentration required to cause inhibition of contraction in 50% of the population). Format: cell-based. How it is done: The tests are carried out on isolated ileum of the guinea pig surviving in Tyrode liquid, aerated and maintained at 37° C. The products are added 30 seconds before affusion of barium chloride used as contracting agent. The concentrations required to cause inhibition of contraction in 50% of the population (EC50) was given in table II compared with papaverine.

Where [4] appears, read: mouse, read-out: LD50 and limits (p = 0.05).
Where [5] appears, read: mouse CD males, i.v., 0.40 ml/20 g, mortality noted 7 days after administration, limits p = 0.05 in brackets.

`CCOc1cc2c(cc1OCC)C(Cc1ccc(OC(C)C)c(OC(C)C)c1)=NCC2` [Example 1, 6,7-Diethoxy-1-(3'4'-diisopropoxybenzyl-3,4-dihydroisoquinoline hydrochloride]: the LD50 (as a rule, the dose expected to kill half of the subjects tested) at 168 h in series [1] (setting [4]) was 19 mg/kg. Further, in series [2], the “effect on blood pressure (mean aortic pressure)” value (from here on “effect on blood pressure”) is on record as “transient hypotension” and the “effect on left ventricular contractile force” value is “reduction in the amplitude of ventricular contraction”. The EC50 in series [3] was 11 µM.
Turning to `CCOc1ccc(CC2=NCCc3cc(OC(C)C)c(OC(C)C)cc32)cc1OCC` [Example 2, 1-(3'4'-Diethoxybenzyl)-6,7-diisopropoxy-3,4-dihydroisoquinoline hydrochloride], the LD50 at 168 h in series [1] (setting [4]) amounted to 8.2 mg/kg. Besides, in series [2], the “effect on blood pressure” value is reported as “transient hypotension” and the “effect on left ventricular contractile force” value was “reduction in the amplitude of ventricular contraction”. Also, in series [3], the EC50 was found to be 4.2 µM.
For `CCCOc1ccc(CC2=NCCc3cc(OCC)c(OCC)cc32)cc1OCCC.Cl` [Example 3, 6,7-Diethoxy-1-(3',4'-di-n-propoxybenzyl)-3,4-dihydroisoquinoline hydrochloride], the LD50 at 168 h in series [1] (setting [5]) was 17.5 mg/kg. In addition, in series [2], the “effect on blood pressure” value is “transient hypotension” and the “effect on left ventricular contractile force” value is “reduction in the amplitude of ventricular contraction”. The EC50 in series [3] came to 3.2 µM.
Consider `CCCOc1cc2c(cc1OCCC)C(Cc1ccc(OCC)c(OCC)c1)=NCC2.Cl` [Example 4, 1-(3',4'-Diethoxybenzyl)-6,7-di-n-propoxy-3,4-dihydroisoquinoline hydrochloride], for which the LD50 at 168 h in series [1] (setting [5]) was 13.5 mg/kg. Moreover, in series [2], the “effect on blood pressure” value is recorded as “transient hypotension” and the “effect on left ventricular contractile force” value is given as “reduction in the amplitude of ventricular contraction”. In series [3], the EC50 came out at 3.7 µM.
As to `CCOc1ccc(CC2NCCc3cc(OC(C)C)c(OC(C)C)cc32)cc1OCC.Cl` (centres unmarked) [Example 10, 1-(3',4'-Diethoxybenzyl)-6,7-diisopropoxy-1,2,3,4-tetrahydroisoquinoline hydrochloride], the 50% lethal dose (LD50) at 168 h in series [1] (setting [5]) came to 19 mg/kg. In series [2], the “effect on blood pressure” value was “transient hypotension” and the “effect on left ventricular contractile force” value was “reduction in the amplitude of ventricular contraction”. For the same molecule, the EC50 in series [3] came out at 10 µM.
In turn, `CCOc1cc2c(cc1OCC)C(Cc1ccc(OC(C)C)c(OC(C)C)c1)NCC2` (centres unmarked) [Example 11, 6,7-Diethoxy-1-(3',4'-diisopropoxybenzyl)-1,2,3,4-tetrahydroisoquinoline hydrochloride] yielded an LD50 at 168 h in series [1] (setting [5]) of 22 mg/kg. The EC50 in series [3] came to 60 µM.
In the case of `COc1ccc(Cc2nccc3cc(OC)c(OC)cc23)cc1OC` [Papauerine HCl, reference compound], the EC50 in series [3] was found to be 980 µM.
Turning to `COc1ccc(Cc2nccc3cc(OC)c(OC)cc23)cc1OC` [papaverine, 1-(3',4'-dimethoxybenzyl)-6,7-dimethoxy isoquinoline, reference compound], in series [2], the “effect on blood pressure” value is “transient hypotension”, the “effect on cardiac frequency” value was “tachycardia” and the “effect on left ventricular contractile force” value was “increase of the ventricular contractile force”.
